Measured values taken from US20240408068A1, “Helicase Primase Inhibitors For Treating Cancer In A Combination Therapy With Oncolytic Viruses” (priority 2018, published 2024).

Tests used:
[1] = system: CT26 tumor; experiment: oHSV animal model: tumor volume in syngeneic bilaterally-inoculated subcutaneous CT26 tumor-bearing mice; type: in vivo, Balbc/j mice
Description: Assessment of the efficacy of an oncolytic virus treatment in the presence and absence of a potential virostatic test compound (Example 7(-)) in a syngeneic bilaterally-inoculated subcutaneous CT26 tumor-bearing mouse model.
CT26 tumor cells (500 000 cell in 100 μL) were subcutaneously inoculated bilaterally into the right and left flanks of 9 week-old immuno-competent female Balbc/j mice after 20 days acclimation (Provider: Charles River Laboratories—BP 0109—F 69592 L'Arbresle Cedex).
The inoculation procedure of colorectal CT26 tumors in mice was as follows: • At the end of the 20 days acclimation period, and in order to identify the animal all along the experimental procedure (for tumor volume monitoring in particular), mice were identified using tattoo. • The day before tumor cell inoculation, mice have been shaved at the injection sites, under isoflurane gas anesthesia (4% induction and 2% maintain). • The day of inoculation, mice were anesthetized with gas anesthesia with 4% isoflurane induction and 2% isoflurane for anesthesia maintaining. • Tumor cells to be inoculated were resuspended in sterile PBS and the needed volume was loaded in 1 ml syringe with a 26 gauge needle (500000 cells/100 μL).
Virus injection (with HSV-1 Herpes Simplex Virus or vehicle) was performed with a 29G gauge needle (0.5 mL) insulin syringe when tumors reached an average volume of 40 mm^3(on day 7). At this time, virus was injected intratumorally (50 μL corresponding to 5×10^6 HSV-1 (experimental groups 3, 5, 6 and 8) or 100 μL corresponding to 1×10^8 HSV-1 (experimental groups 4 and 7)), into the tumor of the right flank.
Pharmacological animal groups (8 animal per group, 64 animals in total) were organized as such: • 1. Control virus-untreated group: test compound vehicle (200 μL, 5% DMSO; 0.5% hydroxypropylmethylcellulose (HPMC) in PBS) oral gavage (20 gauge needle standard suspension applicator), once a day, for 10 days and starting 72 h after virus injection for the other groups. • 2. Control virus vehicle-treated group: 50 μL of virus vehicle, intratumoral injection when tumors reached an average volume of app. 40 mm^3, with test compound vehicle, oral gavage, once a day, for 10 days and starting 72 h after vehicle virus injection. • 3. HSV-1 (quantity 1; 5×10^6 pfu)-treated group: 50 μL of HSV-1 (5×10^6), intratumoral injection when tumors reached an average volume of app. 40 mm^3, with test compound vehicle, oral gavage, once a day, for 10 days and starting 72 h after virus injection, and with anti-PD1/anti-CTLA4 vehicle, intraperitoneal injection (200 μL PBS) on the same day as the virus injection, and then 3 administrations spaced 3 days apart each other (day 7, 10, 13 and 16). • 4. HSV-1 (quantity 2; 1×10^8 pfu)-treated group: 100 μL of HSV-1 (1×10^8) intratumoral injection when tumors reached an average volume of app. 40 mm^3, with test compound vehicle, oral gavage, once a day, for 10 days and starting 72 h after virus injection. • 5. HSV-1 (quantity 1; 5×10^6 pfu)-test compound-treated group: 50 μL of HSV-1 (5×10^6), intratumoral injection when tumors reached an average volume of app. 40 mm^3, with Example 7(-) (10 mg/kg, 20 mg/mL stock in DMSO, final 1 mg/mL, 5% DMSO; 0.5% HPMC in PBS (w/v), the suspension has been sonicated (2 min ultrasound bath, room temperature)), oral gavage (200 μL), once a day, for 10 days and starting 72 h after virus injection, and with anti-PD1/anti-CTLA4 vehicle, intraperitoneal injection (200 μL, PBS) on the same day as the virus injection, and then 3 administrations spaced 3 days apart each other (day 7, 10, 13 and 16). • 6. […]

[2] = in vivo; cited from earlier work
[3] = day 0, with HSV-1 1·10^8, 10 mg/kg po from 72 h pi
[4] = day 0, with HSV-1 5·10^6, 10 mg/kg po from 0 h pi
[5] = day 0, with HSV-1 5·10^6, 10 mg/kg po from 72 h pi
[6] = day 5, with HSV-1 1·10^8, 10 mg/kg po from 72 h pi
[7] = day 5, with HSV-1 5·10^6, 10 mg/kg po from 0 h pi
[8] = day 5, with HSV-1 5·10^6, 10 mg/kg po from 72 h pi
[9] = day 7, with HSV-1 1·10^8, 10 mg/kg po from 72 h pi
[10] = day 7, with HSV-1 5·10^6, 10 mg/kg po from 0 h pi
[11] = day 7, with HSV-1 5·10^6, 10 mg/kg po from 72 h pi
[12] = day 10, with HSV-1 1·10^8, 10 mg/kg po from 72 h pi
[13] = day 10, with HSV-1 5·10^6, 10 mg/kg po from 0 h pi
[14] = day 10, with HSV-1 5·10^6, 10 mg/kg po from 72 h pi
[15] = day 12, with HSV-1 1·10^8, 10 mg/kg po from 72 h pi
[16] = day 12, with HSV-1 5·10^6, 10 mg/kg po from 0 h pi
[17] = day 12, with HSV-1 5·10^6, 10 mg/kg po from 72 h pi
[18] = day 14, with HSV-1 1·10^8, 10 mg/kg po from 72 h pi
[19] = day 14, with HSV-1 5·10^6, 10 mg/kg po from 0 h pi
[20] = day 14, with HSV-1 5·10^6, 10 mg/kg po from 72 h pi
[21] = day 17, with HSV-1 1·10^8, 10 mg/kg po from 72 h pi
[22] = day 17, with HSV-1 5·10^6, 10 mg/kg po from 0 h pi
[23] = day 17, with HSV-1 5·10^6, 10 mg/kg po from 72 h pi
[24] = day 19, with HSV-1 1·10^8, 10 mg/kg po from 72 h pi
[25] = day 19, with HSV-1 5·10^6, 10 mg/kg po from 0 h pi
[26] = day 19, with HSV-1 5·10^6, 10 mg/kg po from 72 h pi

Cc1nc(N(C)C(=O)Cc2ccc(-c3cc(F)ccc3F)cc2)sc1[S@@](C)(=N)=O [Example 7(−), (−)-(S)-2-(2′,5′-Difluoro-[1,1′-biphenyl]-4-yl)-N-methyl-N-(4-methyl-5-(S-methylsulfonimidoyl)thiazol-2-yl)acetamide]
Median tumor volume - Left tumors [1, 3]: 0 mm^3
Median tumor volume - Right tumors [1, 3]: 0 mm^3
Median tumor volume - Right tumors ([1]; day 0, with HSV-1 5·10^6 + aPD-1 + aCTLA4, 10 mg/kg po from 72 h pi): 0 mm^3
Median tumor volume - Left tumors ([1]; day 0, with HSV-1 5·10^6 + aPD-1 + aCTLM, 10 mg/kg po from 72 h pi): 0 mm^3
Median tumor volume - Left tumors [1, 4]: 0 mm^3
Median tumor volume - Right tumors [1, 4]: 0 mm^3
Median tumor volume - Left tumors [1, 5]: 0 mm^3
Median tumor volume - Right tumors [1, 5]: 0 mm^3
Median tumor volume - Left tumors [1, 6]: 18.17 mm^3
Median tumor volume - Right tumors [1, 6]: 16.55 mm^3
Median tumor volume - Right tumors ([1]; day 5, with HSV-1 5·10^6 + aPD-1 + aCTLA4, 10 mg/kg po from 72 h pi): 16.235 mm^3
Median tumor volume - Left tumors ([1]; day 5, with HSV-1 5·10^6 + aPD-1 + aCTLM, 10 mg/kg po from 72 h pi): 14.66 mm^3
Median tumor volume - Left tumors [1, 7]: 15.755 mm^3
Median tumor volume - Right tumors [1, 7]: 16.705 mm^3
Median tumor volume - Left tumors [1, 8]: 14.155 mm^3
Median tumor volume - Right tumors [1, 8]: 17.665 mm^3
Median tumor volume - Left tumors [1, 9]: 23.55 mm^3
Median tumor volume - Right tumors [1, 9]: 39.735 mm^3
Median tumor volume - Right tumors ([1]; day 7, with HSV-1 5·10^6 + aPD-1 + aCTLA4, 10 mg/kg po from 72 h pi): 31.03 mm^3
Median tumor volume - Left tumors ([1]; day 7, with HSV-1 5·10^6 + aPD-1 + aCTLM, 10 mg/kg po from 72 h pi): 18.32 mm^3
Median tumor volume - Left tumors [1, 10]: 21.61 mm^3
Median tumor volume - Right tumors [1, 10]: 25.5 mm^3
Median tumor volume - Left tumors [1, 11]: 22.85 mm^3
Median tumor volume - Right tumors [1, 11]: 36.435 mm^3
Median tumor volume - Left tumors [1, 12]: 33.055 mm^3
Median tumor volume - Right tumors [1, 12]: 74.725 mm^3
Median tumor volume - Right tumors ([1]; day 10, with HSV-1 5·10^6 + aPD-1 + aCTLA4, 10 mg/kg po from 72 h pi): 72.935 mm^3
Median tumor volume - Left tumors ([1]; day 10, with HSV-1 5·10^6 + aPD-1 + aCTLM, 10 mg/kg po from 72 h pi): 47.345 mm^3
Median tumor volume - Left tumors [1, 13]: 43.385 mm^3
Median tumor volume - Right tumors [1, 13]: 43.32 mm^3
Median tumor volume - Left tumors [1, 14]: 55.18 mm^3
Median tumor volume - Right tumors [1, 14]: 45.605 mm^3
Median tumor volume - Left tumors [1, 15]: 92.98 mm^3
Median tumor volume - Right tumors [1, 15]: 115.17 mm^3
Median tumor volume - Right tumors ([1]; day 12, with HSV-1 5·10^6 + aPD-1 + aCTLA4, 10 mg/kg po from 72 h pi): 94.56 mm^3
Median tumor volume - Left tumors ([1]; day 12, with HSV-1 5·10^6 + aPD-1 + aCTLM, 10 mg/kg po from 72 h pi): 58.12 mm^3
Median tumor volume - Left tumors [1, 16]: 73.31 mm^3
Median tumor volume - Right tumors [1, 16]: 48.78 mm^3
Median tumor volume - Left tumors [1, 17]: 121.82 mm^3
Median tumor volume - Right tumors [1, 17]: 76.655 mm^3
Median tumor volume - Left tumors [1, 18]: 224.29 mm^3
Median tumor volume - Right tumors [1, 18]: 142.49 mm^3
Median tumor volume - Right tumors ([1]; day 14, with HSV-1 5·10^6 + aPD-1 + aCTLA4, 10 mg/kg po from 72 h pi): 105.02 mm^3
Median tumor volume - Left tumors ([1]; day 14, with HSV-1 5·10^6 + aPD-1 + aCTLM, 10 mg/kg po from 72 h pi): 71.44 mm^3
Median tumor volume - Left tumors [1, 19]: 112.98 mm^3
Median tumor volume - Right tumors [1, 19]: 39.01 mm^3
Median tumor volume - Left tumors [1, 20]: 141.445 mm^3
Median tumor volume - Right tumors [1, 20]: 86.87 mm^3
Median tumor volume - Left tumors [1, 21]: 348.78 mm^3
Median tumor volume - Right tumors [1, 21]: 93.34 mm^3
Median tumor volume - Right tumors ([1]; day 17, with HSV-1 5·10^6 + aPD-1 + aCTLA4, 10 mg/kg po from 72 h pi): 60.17 mm^3
Median tumor volume - Left tumors ([1]; day 17, with HSV-1 5·10^6 + aPD-1 + aCTLM, 10 mg/kg po from 72 h pi): 66.86 mm^3
Median tumor volume - Left tumors [1, 22]: 169.68 mm^3
Median tumor volume - Right tumors [1, 22]: 60.71 mm^3
Median tumor volume - Left tumors [1, 23]: 219.98 mm^3
Median tumor volume - Right tumors [1, 23]: 99.21 mm^3
Median tumor volume - Left tumors [1, 24]: 352.82 mm^3
Median tumor volume - Right tumors [1, 24]: 100 mm^3
Median tumor volume - Right tumors ([1]; day 19, with HSV-1 5·10^6 + aPD-1 + aCTLA4, 10 mg/kg po from 72 h pi): 84.68 mm^3
Median tumor volume - Left tumors ([1]; day 19, with HSV-1 5·10^6 + aPD-1 + aCTLM, 10 mg/kg po from 72 h pi): 49.84 mm^3
Median tumor volume - Left tumors [1, 25]: 474.53 mm^3
Median tumor volume - Right tumors [1, 25]: 72.69 mm^3
Median tumor volume - Left tumors [1, 26]: 285.49 mm^3
Median tumor volume - Right tumors [1, 26]: 105 mm^3
ED50 in animal models [2]: lowest ED50 in animal models reported so far
